# Measurements as given in article PMC4503722, “Novel Phenotypic Outcomes Identified for a Public Collection of Approved Drugs from a Publicly Accessible Panel of Assays” (PLoS ONE, 2015).
# Tested on: SNU-C1
# Assay: cells
# Format: cell-based
# Conditions: not given
row,SMILES,"IC50/EC50, Basal_Viability ATP SNU-C1 (assay number 30) [µM]"
1,O=Cc1ccc(O)c(O)c1O [NCGC00262933-01],> 20

# Same assay, conditions: assay number 30; basal
row,SMILES,Basal_Viability ATP SNU-C1 IC50/EC50 [µM]
1,CCCCCCCC[N+](C)(C)CCCCCCCC [NCGC00182056-04],1.4417
2,CC(=O)N(CC(O)CN(C(C)=O)c1c(I)c(C(=O)NCC(O)CO)c(I)c(C(=O)NCC(O)CO)c1I)c1c(I)c(C(=O)NCC(O)CO)c(I)c(C(=O)NCC(O)CO)c1I (stereo not drawn) [NCGC00179408-03],> 20
3,Cl.NC1=NCC2c3ccccc3Cc3ccccc3N12 (stereo not drawn) [NCGC00165791-04],> 20
4,CCOC(=O)[C@H](CCc1ccccc1)N[C@@H](C)C(=O)N1C(=O)N(C)C[C@H]1C(=O)O.Cl [NCGC00181342-02],> 20
5,CCC1Nc2cc(Cl)c(S(N)(=O)=O)cc2S(=O)(=O)N1 (stereo not drawn) [NCGC00160540-03],> 20
6,O=C(NC1CCN(CCc2c[nH]c3ccccc23)CC1)c1ccccc1 [NCGC00165810-02],> 20
7,CCc1cccc(N(C)C(N)=Nc2cccc3ccccc23)c1.Cl [NCGC00015236-04],> 20

# Tested on: HCT116 cells treated with a GSK3β inhibitor
# Assay: cells
# Format: cell-based
# Conditions: not given
row,SMILES,"IC50/EC50, GSK3b inh pretreated_Viability ATP HCT116 (assay number 26) [µM]"
1,O=Cc1ccc(O)c(O)c1O [NCGC00262933-01],0.1412

# Same assay, conditions: assay number 26; GSK3b inhibitor pretreated
row,SMILES,GSK3b inh pretreated_Viability ATP HCT116 IC50/EC50 [µM]
1,CCCCCCCC[N+](C)(C)CCCCCCCC [NCGC00182056-04],3.6902
2,CC(=O)N(CC(O)CN(C(C)=O)c1c(I)c(C(=O)NCC(O)CO)c(I)c(C(=O)NCC(O)CO)c1I)c1c(I)c(C(=O)NCC(O)CO)c(I)c(C(=O)NCC(O)CO)c1I (stereo not drawn) [NCGC00179408-03],> 20
3,Cl.NC1=NCC2c3ccccc3Cc3ccccc3N12 (stereo not drawn) [NCGC00165791-04],> 20
4,CCOC(=O)[C@H](CCc1ccccc1)N[C@@H](C)C(=O)N1C(=O)N(C)C[C@H]1C(=O)O.Cl [NCGC00181342-02],> 20
5,CCC1Nc2cc(Cl)c(S(N)(=O)=O)cc2S(=O)(=O)N1 (stereo not drawn) [NCGC00160540-03],> 20
6,O=C(NC1CCN(CCc2c[nH]c3ccccc23)CC1)c1ccccc1 [NCGC00165810-02],> 20
7,CCc1cccc(N(C)C(N)=Nc2cccc3ccccc23)c1.Cl [NCGC00015236-04],> 20

# Tested on: endothelial tube formation in co-cultures of ECFCs and ADSCs treated with VEGF
# Assay: cells
# Format: cell-based, human
# Conditions: not given
row,SMILES,VEGF_ADSC\ECFC Angio CD31 TubeArea IC50/EC50 [µM]
1,CCCCCCCC[N+](C)(C)CCCCCCCC [NCGC00182056-04],1.3911
2,CC(=O)N(CC(O)CN(C(C)=O)c1c(I)c(C(=O)NCC(O)CO)c(I)c(C(=O)NCC(O)CO)c1I)c1c(I)c(C(=O)NCC(O)CO)c(I)c(C(=O)NCC(O)CO)c1I (stereo not drawn) [NCGC00179408-03],> 10
3,Cl.NC1=NCC2c3ccccc3Cc3ccccc3N12 (stereo not drawn) [NCGC00165791-04],> 10
4,CCOC(=O)[C@H](CCc1ccccc1)N[C@@H](C)C(=O)N1C(=O)N(C)C[C@H]1C(=O)O.Cl [NCGC00181342-02],> 10
5,CCC1Nc2cc(Cl)c(S(N)(=O)=O)cc2S(=O)(=O)N1 (stereo not drawn) [NCGC00160540-03],> 10
6,O=C(NC1CCN(CCc2c[nH]c3ccccc23)CC1)c1ccccc1 [NCGC00165810-02],> 10
7,CCc1cccc(N(C)C(N)=Nc2cccc3ccccc23)c1.Cl [NCGC00015236-04],> 10

# Tested on: RKO
# Assay: cells
# Format: cell-based
# Conditions: not given
row,SMILES,"IC50/EC50, Basal_Viability ATP RKO (assay number 29) [µM]"
1,O=Cc1ccc(O)c(O)c1O [NCGC00262933-01],6.232

# Same assay, conditions: assay number 29; basal
row,SMILES,Basal_Viability ATP RKO IC50/EC50 [µM]
1,CCCCCCCC[N+](C)(C)CCCCCCCC [NCGC00182056-04],2.183
2,CC(=O)N(CC(O)CN(C(C)=O)c1c(I)c(C(=O)NCC(O)CO)c(I)c(C(=O)NCC(O)CO)c1I)c1c(I)c(C(=O)NCC(O)CO)c(I)c(C(=O)NCC(O)CO)c1I (stereo not drawn) [NCGC00179408-03],> 20
3,Cl.NC1=NCC2c3ccccc3Cc3ccccc3N12 (stereo not drawn) [NCGC00165791-04],> 20
4,CCOC(=O)[C@H](CCc1ccccc1)N[C@@H](C)C(=O)N1C(=O)N(C)C[C@H]1C(=O)O.Cl [NCGC00181342-02],> 20
5,CCC1Nc2cc(Cl)c(S(N)(=O)=O)cc2S(=O)(=O)N1 (stereo not drawn) [NCGC00160540-03],> 20
6,O=C(NC1CCN(CCc2c[nH]c3ccccc23)CC1)c1ccccc1 [NCGC00165810-02],> 20
7,CCc1cccc(N(C)C(N)=Nc2cccc3ccccc23)c1.Cl [NCGC00015236-04],> 20

# Tested on: DLD-1
# Assay: cells
# Format: cell-based
# Conditions: not given
row,SMILES,"IC50/EC50, Basal_Viability ATP DLD-1 (assay number 23) [µM]"
1,O=Cc1ccc(O)c(O)c1O [NCGC00262933-01],> 20

# Same assay, conditions: assay number 23; basal
row,SMILES,Basal_Viability ATP DLD-1 IC50/EC50 [µM]
1,CCCCCCCC[N+](C)(C)CCCCCCCC [NCGC00182056-04],3.2197
2,CC(=O)N(CC(O)CN(C(C)=O)c1c(I)c(C(=O)NCC(O)CO)c(I)c(C(=O)NCC(O)CO)c1I)c1c(I)c(C(=O)NCC(O)CO)c(I)c(C(=O)NCC(O)CO)c1I (stereo not drawn) [NCGC00179408-03],> 20
3,Cl.NC1=NCC2c3ccccc3Cc3ccccc3N12 (stereo not drawn) [NCGC00165791-04],> 20
4,CCOC(=O)[C@H](CCc1ccccc1)N[C@@H](C)C(=O)N1C(=O)N(C)C[C@H]1C(=O)O.Cl [NCGC00181342-02],> 20
5,CCC1Nc2cc(Cl)c(S(N)(=O)=O)cc2S(=O)(=O)N1 (stereo not drawn) [NCGC00160540-03],> 20
6,O=C(NC1CCN(CCc2c[nH]c3ccccc23)CC1)c1ccccc1 [NCGC00165810-02],> 20
7,CCc1cccc(N(C)C(N)=Nc2cccc3ccccc23)c1.Cl [NCGC00015236-04],> 20

# Tested on: Colo320
# Assay: cells
# Format: cell-based
# Conditions: not given
row,SMILES,"IC50/EC50, Basal_Viability ATP Colo 320 (assay number 27) [µM]"
1,O=Cc1ccc(O)c(O)c1O [NCGC00262933-01],9.0837

# Same assay, conditions: assay number 27; basal
row,SMILES,Basal_Viability ATP Colo 320 IC50/EC50 [µM]
1,CCCCCCCC[N+](C)(C)CCCCCCCC [NCGC00182056-04],4.6621
2,CC(=O)N(CC(O)CN(C(C)=O)c1c(I)c(C(=O)NCC(O)CO)c(I)c(C(=O)NCC(O)CO)c1I)c1c(I)c(C(=O)NCC(O)CO)c(I)c(C(=O)NCC(O)CO)c1I (stereo not drawn) [NCGC00179408-03],> 20
3,Cl.NC1=NCC2c3ccccc3Cc3ccccc3N12 (stereo not drawn) [NCGC00165791-04],> 20
4,CCOC(=O)[C@H](CCc1ccccc1)N[C@@H](C)C(=O)N1C(=O)N(C)C[C@H]1C(=O)O.Cl [NCGC00181342-02],> 20
5,CCC1Nc2cc(Cl)c(S(N)(=O)=O)cc2S(=O)(=O)N1 (stereo not drawn) [NCGC00160540-03],> 20
6,O=C(NC1CCN(CCc2c[nH]c3ccccc23)CC1)c1ccccc1 [NCGC00165810-02],> 20
7,CCc1cccc(N(C)C(N)=Nc2cccc3ccccc23)c1.Cl [NCGC00015236-04],> 20

# Tested on: HT-29
# Assay: cells
# Format: cell-based
# Conditions: not given
row,SMILES,"IC50/EC50, Basal_Viability ATP HT-29 (assay number 28) [µM]"
1,O=Cc1ccc(O)c(O)c1O [NCGC00262933-01],> 20

# Same assay, conditions: assay number 28; basal
row,SMILES,Basal_Viability ATP HT-29 IC50/EC50 [µM]
1,CCCCCCCC[N+](C)(C)CCCCCCCC [NCGC00182056-04],3.9986
2,CC(=O)N(CC(O)CN(C(C)=O)c1c(I)c(C(=O)NCC(O)CO)c(I)c(C(=O)NCC(O)CO)c1I)c1c(I)c(C(=O)NCC(O)CO)c(I)c(C(=O)NCC(O)CO)c1I (stereo not drawn) [NCGC00179408-03],> 20
3,Cl.NC1=NCC2c3ccccc3Cc3ccccc3N12 (stereo not drawn) [NCGC00165791-04],> 20
4,CCOC(=O)[C@H](CCc1ccccc1)N[C@@H](C)C(=O)N1C(=O)N(C)C[C@H]1C(=O)O.Cl [NCGC00181342-02],> 20
5,CCC1Nc2cc(Cl)c(S(N)(=O)=O)cc2S(=O)(=O)N1 (stereo not drawn) [NCGC00160540-03],> 20
6,O=C(NC1CCN(CCc2c[nH]c3ccccc23)CC1)c1ccccc1 [NCGC00165810-02],> 20
7,CCc1cccc(N(C)C(N)=Nc2cccc3ccccc23)c1.Cl [NCGC00015236-04],> 20

# Tested on: HeLa cells
# Assay: cells
# Format: cell-based
# Conditions: not given
SMILES,"IC50/EC50, Hela CellCycMod PI 2N (assay number 14) [µM]","IC50/EC50, Hela CellCycMod PI 4N (assay number 16) [µM]","IC50/EC50, Hela CellCycMod PI Cell Number (assay number 18) [µM]","IC50/EC50, Hela CellCycMod PI MI (assay number 17) [µM]","IC50/EC50, Hela CellCycMod PI S Phase (assay number 15) [µM]"
O=Cc1ccc(O)c(O)c1O [NCGC00262933-01],> 10,> 10,> 10,> 10,> 10

# Tested on: ECFC/ADSC co-culture cell nuclei number
# Assay: not given
# Conditions: not given
row,SMILES,VEGF_ADSC\ECFC Angio Hoechst NucArea IC50/EC50 [µM]
1,CCCCCCCC[N+](C)(C)CCCCCCCC [NCGC00182056-04],7.431
2,CC(=O)N(CC(O)CN(C(C)=O)c1c(I)c(C(=O)NCC(O)CO)c(I)c(C(=O)NCC(O)CO)c1I)c1c(I)c(C(=O)NCC(O)CO)c(I)c(C(=O)NCC(O)CO)c1I (stereo not drawn) [NCGC00179408-03],> 10
3,Cl.NC1=NCC2c3ccccc3Cc3ccccc3N12 (stereo not drawn) [NCGC00165791-04],> 10
4,CCOC(=O)[C@H](CCc1ccccc1)N[C@@H](C)C(=O)N1C(=O)N(C)C[C@H]1C(=O)O.Cl [NCGC00181342-02],> 10
5,CCC1Nc2cc(Cl)c(S(N)(=O)=O)cc2S(=O)(=O)N1 (stereo not drawn) [NCGC00160540-03],> 10
6,O=C(NC1CCN(CCc2c[nH]c3ccccc23)CC1)c1ccccc1 [NCGC00165810-02],> 10
7,CCc1cccc(N(C)C(N)=Nc2cccc3ccccc23)c1.Cl [NCGC00015236-04],> 10

# Tested on: HCT116
# Assay: cells
# Format: cell-based
# Conditions: not given
row,SMILES,"IC50/EC50, Basal_Viability ATP HCT116 (assay number 25) [µM]"
1,O=Cc1ccc(O)c(O)c1O [NCGC00262933-01],> 20

# Same assay, conditions: assay number 25; basal
row,SMILES,Basal_Viability ATP HCT116 IC50/EC50 [µM]
1,CCCCCCCC[N+](C)(C)CCCCCCCC [NCGC00182056-04],6.2411
2,CC(=O)N(CC(O)CN(C(C)=O)c1c(I)c(C(=O)NCC(O)CO)c(I)c(C(=O)NCC(O)CO)c1I)c1c(I)c(C(=O)NCC(O)CO)c(I)c(C(=O)NCC(O)CO)c1I (stereo not drawn) [NCGC00179408-03],> 20
3,Cl.NC1=NCC2c3ccccc3Cc3ccccc3N12 (stereo not drawn) [NCGC00165791-04],> 20
4,CCOC(=O)[C@H](CCc1ccccc1)N[C@@H](C)C(=O)N1C(=O)N(C)C[C@H]1C(=O)O.Cl [NCGC00181342-02],> 20
5,CCC1Nc2cc(Cl)c(S(N)(=O)=O)cc2S(=O)(=O)N1 (stereo not drawn) [NCGC00160540-03],> 20

# Tested on: SW480
# Assay: cells
# Format: cell-based
# Conditions: not given
row,SMILES,"IC50/EC50, Basal_Viability ATP SW480 (assay number 24) [µM]"
1,O=Cc1ccc(O)c(O)c1O [NCGC00262933-01],11.3319

# Same assay, conditions: assay number 24; basal
row,SMILES,Basal_Viability ATP SW480 IC50/EC50 [µM]
1,CCCCCCCC[N+](C)(C)CCCCCCCC [NCGC00182056-04],3.4577
2,CC(=O)N(CC(O)CN(C(C)=O)c1c(I)c(C(=O)NCC(O)CO)c(I)c(C(=O)NCC(O)CO)c1I)c1c(I)c(C(=O)NCC(O)CO)c(I)c(C(=O)NCC(O)CO)c1I (stereo not drawn) [NCGC00179408-03],> 20
3,Cl.NC1=NCC2c3ccccc3Cc3ccccc3N12 (stereo not drawn) [NCGC00165791-04],> 20
4,CCOC(=O)[C@H](CCc1ccccc1)N[C@@H](C)C(=O)N1C(=O)N(C)C[C@H]1C(=O)O.Cl [NCGC00181342-02],> 20
5,CCC1Nc2cc(Cl)c(S(N)(=O)=O)cc2S(=O)(=O)N1 (stereo not drawn) [NCGC00160540-03],> 6.6667
6,O=C(NC1CCN(CCc2c[nH]c3ccccc23)CC1)c1ccccc1 [NCGC00165810-02],> 20
7,CCc1cccc(N(C)C(N)=Nc2cccc3ccccc23)c1.Cl [NCGC00015236-04],> 20
